In PubChem BioAssay (NCI):
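Where inhibition never reached the appropriate level, the endpoint shown equals the highest concentration tested. Otherwise, values were interpolated linearly from a five-concentration, 48-hour dose response in 96-well plates. Abbreviation: GI50, concentration required for 50% inhibition of growth. At the TGI there is no net growth.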

Experiments:
Assay in all cases: growth of human tumour cells (NCI), 48 h
[1] = test system: NCI-H23 lung
[2] = test system: SF-539 CNS
[3] = test system: OVCAR-5 ovarian
[4] = test system: MOLT-4 leukemia
[5] = test system: U251 CNS
[6] = test system: SW-620 colon
[7] = test system: SF-268 CNS
[8] = test system: COLO 205 colon
[9] = test system: PC-3 prostate
[10] = test system: OVCAR-8 ovarian
[11] = test system: SNB-19 CNS
[12] = test system: SNB-75 CNS
[13] = test system: SK-MEL-28 melanoma
[14] = test system: RXF 393 renal
[15] = test system: HOP-62 NSCLC
[16] = test system: NCI-H460 lung
[17] = test system: EKVX NSCLC
[18] = test system: BT-549 breast
[19] = test system: OVCAR-3 ovarian
[20] = test system: DU-145 prostate
[21] = test system: HT29 colon
[22] = test system: NCI-H226 lung
[23] = test system: IGROV1 ovarian
[24] = test system: UACC-257 melanoma
[25] = test system: M14 melanoma
[26] = test system: HCC-2998 colon
[27] = test system: CCRF-CEM leukemia
[28] = test system: A549 NSCLC
[29] = test system: 786-0 renal
[30] = test system: HCT-15 colon
[31] = test system: SK-OV-3 ovarian
[32] = test system: NCI-H522 lung
[33] = test system: TK-10 renal
[34] = test system: MDA-N
[35] = test system: HCT-116 colon
[36] = test system: CAKI-1 renal
[37] = test system: OVCAR-4 ovarian
[38] = test system: SR leukemia
[39] = test system: SN12C renal
[40] = test system: UO-31 renal
[41] = test system: SF-295 CNS
[42] = test system: HL-60(TB) leukemia
[43] = test system: K-562 leukemia
[44] = test system: RPMI-8226 leukemia
[45] = test system: ACHN renal
[46] = test system: SK-MEL-5 melanoma
[47] = test system: NCI/ADR-RES ovarian
[48] = test system: UACC-62 melanoma
[49] = test system: MCF7 breast
[50] = test system: MALME-3M melanoma
[51] = test system: SK-MEL-2 melanoma
[52] = test system: HS 578T breast
[53] = test system: T-47D breast
[54] = test system: HOP-92 NSCLC
[55] = test system: MDA-MB-231 breast
[56] = test system: LOX IMVI melanoma
[57] = test system: KM12 colon
[58] = test system: A498 renal
[59] = test system: MDA-MB-435

`N#CCCC(CC#N)N1CCN(C(CC#N)CCC#N)CC1` (stereo unspecified) was tested, and the TGI [1] was greater than 100000 nM, the TGI [2] was greater than 100000 nM and the TGI [3] was greater than 100000 nM. The TGI [4] was greater than 100000 nM, the TGI [5] was greater than 100000 nM and the TGI [6] was greater than 100000 nM. The TGI [7] was greater than 100000 nM, the TGI [8] was greater than 100000 nM and the TGI [9] was greater than 100000 nM. The TGI [10] was greater than 100000 nM, the TGI [11] was greater than 100000 nM and the TGI [12] was greater than 100000 nM. For the same molecule, the TGI [13] was greater than 100000 nM, the TGI [14] was greater than 100000 nM and the TGI [15] was greater than 100000 nM. It also gave a TGI [16] greater than 100000 nM, a TGI [17] greater than 100000 nM and a TGI [18] greater than 100000 nM. The TGI [19] was greater than 100000 nM, the TGI [20] was greater than 100000 nM and the TGI [21] was greater than 100000 nM. The TGI [22] was greater than 100000 nM, the TGI [23] was greater than 100000 nM and the TGI [24] was greater than 100000 nM. The TGI [25] was greater than 100000 nM, the TGI [26] was greater than 100000 nM and the TGI [27] was greater than 100000 nM. It also gave a TGI [28] greater than 100000 nM, a TGI [29] greater than 100000 nM and a TGI [30] greater than 100000 nM. The TGI [31] was greater than 100000 nM, the TGI [32] was greater than 100000 nM and the TGI [33] was greater than 100000 nM. The TGI [34] was greater than 100000 nM, the TGI [35] was greater than 100000 nM and the TGI [36] was greater than 100000 nM. It also gave a TGI [37] greater than 100000 nM, a TGI [38] greater than 100000 nM and a TGI [39] greater than 100000 nM. It also gave a TGI [40] greater than 100000 nM, a TGI [41] greater than 100000 nM and a TGI [42] greater than 100000 nM. It also gave a TGI [43] greater than 100000 nM, a TGI [44] greater than 100000 nM and a TGI [45] greater than 100000 nM. It also gave a TGI [46] greater than 100000 nM, a TGI [47] greater than 100000 nM and a TGI [48] greater than 100000 nM. For the same molecule, the TGI [49] was greater than 100000 nM and the TGI [50] was greater than 100000 nM.

`CCOC(=O)c1ccc2c(c1)c1c(C)c3ccncc3c(C)c1n2C` gave a GI50 [1] of 376 nM, a TGI [1] of 1980 nM and a GI50 [51] of 897 nM. The TGI [51] was 2580 nM, the GI50 [2] was 467 nM and the TGI [2] was 1920 nM. The GI50 [3] was 796 nM, the TGI [3] was 2840 nM and the GI50 [4] was 393 nM. For the same molecule, the TGI [4] was 3190 nM, the GI50 [52] was 543 nM and the TGI [52] was 3240 nM. It also gave a GI50 [5] of 468 nM, a TGI [5] of 1980 nM and a GI50 [6] of 322 nM. It also gave a TGI [6] of 1800 nM, a GI50 [7] of 846 nM and a TGI [7] of 3480 nM. The GI50 [8] was 350 nM, the TGI [8] was 1820 nM and the GI50 [9] was 486 nM. The TGI [9] was 2150 nM, the GI50 [53] was 855 nM and the TGI [53] was 3500 nM. For the same molecule, the GI50 [10] was 436 nM, the TGI [10] was 3250 nM and the GI50 [54] was 303 nM. For the same molecule, the TGI [54] was 2360 nM, the GI50 [11] was 441 nM and the TGI [11] was 2320 nM. For the same molecule, the GI50 [12] was 380 nM, the TGI [12] was 1950 nM and the GI50 [13] was 539 nM. For the same molecule, the TGI [13] was 1900 nM, the GI50 [14] was 349 nM and the TGI [14] was 1670 nM. For the same molecule, the GI50 [15] was 408 nM, the TGI [15] was 2160 nM and the GI50 [16] was 680 nM. For the same molecule, the TGI [16] was 3460 nM, the GI50 [55] was 622 nM and the TGI [55] was 2400 nM. For the same molecule, the GI50 [56] was 349 nM, the TGI [56] was 1620 nM and the GI50 [17] was 384 nM. The TGI [17] was 2370 nM, the GI50 [18] was 1270 nM and the TGI [18] was 3700 nM. For the same molecule, the GI50 [57] was 517 nM, the TGI [57] was 2580 nM and the GI50 [19] was 692 nM. The TGI [19] was 2620 nM, the GI50 [58] was 664 nM and the TGI [58] was 2050 nM. It also gave a GI50 [20] of 546 nM, a TGI [20] of 2330 nM and a GI50 [21] of 362 nM. The TGI [21] was 1780 nM, the GI50 [22] was 260 nM and the TGI [22] was 1450 nM. For the same molecule, the GI50 [23] was 211 nM, the TGI [23] was 1460 nM and the GI50 [24] was 472 nM. The TGI [24] was 2600 nM, the GI50 [25] was 505 nM and the TGI [25] was 2080 nM. The GI50 [26] was 1090 nM, the TGI [26] was 2950 nM and the GI50 [27] was 851 nM. The TGI [27] was 8640 nM, the GI50 [28] was 382 nM and the TGI [28] was 1880 nM. The GI50 [29] was 642 nM, the TGI [29] was 2030 nM and the GI50 [30] was 381 nM. The TGI [30] was 1650 nM, the GI50 [31] was 721 nM and the TGI [31] was 2990 nM. The GI50 [32] was 564 nM, the TGI [32] was 2550 nM and the GI50 [33] was 1150 nM. The TGI [33] was 3050 nM, the GI50 [59] was 649 nM and the TGI [59] was 1960 nM. For the same molecule, the GI50 [35] was 287 nM, the TGI [35] was 1380 nM and the GI50 [36] was 287 nM. For the same molecule, the TGI [36] was 1490 nM, the GI50 [37] was 745 nM and the TGI [37] was 2550 nM. For the same molecule, the GI50 [38] was 269 nM, the TGI [38] was 3950 nM and the GI50 [39] was 457 nM. The TGI [39] was 2310 nM, the GI50 [40] was 165 nM and the TGI [40] was 1400 nM. The GI50 [41] was 516 nM, the TGI [41] was 4630 nM and the GI50 [42] was 1160 nM. It also gave a TGI [42] of 6080 nM, a GI50 [43] of 413 nM and a TGI [43] of 2530 nM. It also gave a GI50 [44] of 440 nM, a TGI [44] of 2440 nM and a GI50 [45] of 265 nM. It also gave a TGI [45] of 1320 nM, a GI50 [46] of 384 nM and a TGI [46] of 1510 nM. The GI50 [47] was 470 nM, the TGI [47] was 2900 nM and the GI50 [48] was 378 nM. For the same molecule, the TGI [48] was 1730 nM, the GI50 [49] was 346 nM and the TGI [49] was 1750 nM. The GI50 [50] was 375 nM and the TGI [50] was 1680 nM.
